These results are taken from patent US9796711B2, “Substituted pyrazolo[3,4-b]pyridin-6-carboxylic acids and method of use” (AbbVie S.àr.l., priority 2015, dated 2017).

In general, EC50 refers to the concentration needed to bring the measured effect to its halfway point.

Assay [1] addresses T1, ΔF508-CFTR (Homo sapiens, UniProt P13569, DEL508-508).
T1 construct: host or cells: CFBE41o-, doxycycline-inducible
Nature of the assay: CFTR cell surface levels using HRP-tagged ΔF508-CFTR expressing CFBE cells, in the presence of a co-corrector. The class given is cell-based. To be noted: HRP-tagged ΔF508-CFTR expressing CFBE cells, in the presence of 3 μM co-corrector; for EC50: read-out: EC50. In outline:
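Cells were seeded with 0.5 μg/mL doxycycline and held 68 h at 37 °C. Test compounds plus 3 μM co-corrector (final 0.1% DMSO) were then added for 20 h at 33 °C. Washed cells received HRP substrate, and luminescence was normalized between DMSO and 3 μM co-corrector controls.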

The target in assay [2] is T1, ΔF508-CFTR. Nature of the assay: CFTR cell surface levels using HRP-tagged ΔF508-CFTR expressing CFBE cells, intrinsic corrector capacity. Format: cell-based. The following applies: for EC50: read-out: EC50. The method, boiled down: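 Here the cells express ΔF508-CFTR with horseradish peroxidase inserted in extracellular loop 4, so only rescued channel at the surface gives luminescent signal. Compounds act on their own, 20 h at the reduced temperature of 33 °C; values are percent activity relative to DMSO and a 3 μM corrector.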

[3] abbreviates: HRP-tagged ΔF508-CFTR expressing CFBE cells, intrinsic corrector capacity (no co-corrector), 33° C., 20 hours.
The mark [4] stands for this setting: HRP-tagged ΔF508-CFTR CFBE41o- cells, compounds alone (intrinsic corrector capacity), 20 hours at 33° C., positive control 3 μM corrector.
Where [5] appears, read: HRP-tagged ΔF508-CFTR CFBE41o- cells, compounds alone (intrinsic corrector capacity), 20 hours at 33° C.

T1 sequence (P13569 with tags, fused parts or gaps DEL508-508): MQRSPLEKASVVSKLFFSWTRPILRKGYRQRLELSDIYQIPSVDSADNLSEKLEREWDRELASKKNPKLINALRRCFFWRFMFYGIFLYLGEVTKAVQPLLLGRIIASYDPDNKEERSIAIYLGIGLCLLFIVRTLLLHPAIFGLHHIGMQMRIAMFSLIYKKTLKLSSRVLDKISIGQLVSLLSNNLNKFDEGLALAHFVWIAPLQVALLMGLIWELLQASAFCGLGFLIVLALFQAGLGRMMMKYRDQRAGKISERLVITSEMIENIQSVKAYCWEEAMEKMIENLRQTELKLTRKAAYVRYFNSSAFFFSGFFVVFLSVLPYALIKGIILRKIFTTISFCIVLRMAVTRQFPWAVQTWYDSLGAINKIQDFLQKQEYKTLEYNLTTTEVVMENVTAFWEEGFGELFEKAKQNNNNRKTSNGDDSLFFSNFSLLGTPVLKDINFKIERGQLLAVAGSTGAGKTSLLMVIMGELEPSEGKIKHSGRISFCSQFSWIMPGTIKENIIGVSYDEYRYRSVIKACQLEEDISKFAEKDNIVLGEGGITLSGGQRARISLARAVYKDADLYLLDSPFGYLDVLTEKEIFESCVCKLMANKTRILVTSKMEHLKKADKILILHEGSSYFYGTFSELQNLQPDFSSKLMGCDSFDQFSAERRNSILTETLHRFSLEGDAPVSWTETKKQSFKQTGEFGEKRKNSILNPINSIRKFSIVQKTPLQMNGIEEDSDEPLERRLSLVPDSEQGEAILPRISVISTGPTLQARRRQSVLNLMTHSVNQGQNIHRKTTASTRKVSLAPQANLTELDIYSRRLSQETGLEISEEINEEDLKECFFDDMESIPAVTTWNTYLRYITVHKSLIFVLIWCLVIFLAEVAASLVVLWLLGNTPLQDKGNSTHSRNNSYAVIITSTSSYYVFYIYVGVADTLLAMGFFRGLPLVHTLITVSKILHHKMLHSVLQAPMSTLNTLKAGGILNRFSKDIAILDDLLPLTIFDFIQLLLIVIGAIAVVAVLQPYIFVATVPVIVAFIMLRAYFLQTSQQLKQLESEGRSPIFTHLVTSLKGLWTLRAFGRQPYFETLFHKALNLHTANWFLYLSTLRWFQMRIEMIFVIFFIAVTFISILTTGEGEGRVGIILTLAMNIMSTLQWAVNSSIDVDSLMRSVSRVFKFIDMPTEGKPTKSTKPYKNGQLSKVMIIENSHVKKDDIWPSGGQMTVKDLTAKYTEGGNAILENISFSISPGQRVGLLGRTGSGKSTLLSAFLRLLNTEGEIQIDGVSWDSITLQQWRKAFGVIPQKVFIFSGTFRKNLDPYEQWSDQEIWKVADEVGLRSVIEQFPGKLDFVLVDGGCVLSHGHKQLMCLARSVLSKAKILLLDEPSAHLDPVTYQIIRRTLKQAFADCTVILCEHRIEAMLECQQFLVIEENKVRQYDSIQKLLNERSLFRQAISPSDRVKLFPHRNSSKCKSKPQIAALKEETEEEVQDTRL

As to `O=C(O)c1cc(N2CCC3C(CCN3C3COC3)C2)c2c(C3CCC3)nn(-c3ccc(F)cc3)c2n1` (stereo not shown) [compound 902, 3-cyclobutyl-1-(4-fluorophenyl)-4-[1-(oxetan-3-yl)octahydro-5H-pyrrolo[3,2-c]pyridin-5-yl]-1H-pyrazolo[3,4-b]pyridine-6-carboxylic acid], the “% Activation” value on ΔF508-CFTR [1] was determined as 411.75%; on ΔF508-CFTR [2] (setting [3]), 193.9%. The 50% effective concentration (EC50) was determined as 114 nM at ΔF508-CFTR [1] and 230 nM on ΔF508-CFTR [2] (setting [3]).

As to `O=C(O)c1cc(N2CCOC(CN3CCCCC3)C2)c2c(C3CCC3)nn(-c3ccccc3)c2n1` (stereo not shown) [compound 556, 3-cyclobutyl-1-phenyl-4-{2-[(piperidin-1-yl)methyl]morpholin-4-yl}-1H-pyrazolo[3,4-b]pyridine-6-carboxylic acid], at ΔF508-CFTR [1], the “% Activation” value was found to be 324% and the EC50 amounted to 682 nM. Also, at ΔF508-CFTR [2] (setting [3]), the “% Activation” value is reported as 140.1% and the EC50 was 838 nM.

For the compound `O=C(O)c1cc(OC[C@H](F)C2CCOCC2)c2c(C3CCC3)nn(-c3ccccc3)c2n1` [compound 434, 3-cyclobutyl-4-[(2R)-2-fluoro-2-(oxan-4-yl)ethoxy]-1-phenyl-1H-pyrazolo[3,4-b]pyridine-6-carboxylic acid], on ΔF508-CFTR [1], the “% Activation” value is listed as 342.8% and the EC50 was 328 nM. Also, at ΔF508-CFTR [2] (setting [3]), the “% Activation” value came out at 154.17% and the EC50 amounted to 581 nM.

As to `CC(C)c1nn(C2CCN(CC#N)C2)c2nc(C(=O)O)cc(-c3ccc(N4CCOCC4)cc3)c12` (stereo not shown) [compound 141, 1-[1-(cyanomethyl)pyrrolidin-3-yl]-4-[4-(morpholin-4-yl)phenyl]-3-(propan-2-yl)-1H-pyrazolo[3,4-b]pyridine-6-carboxylic acid], the “% Activation” value amounted to 121.5% at ΔF508-CFTR [1] and 5.399% at ΔF508-CFTR [2] (setting [4]). Besides, the EC50 on ΔF508-CFTR [1] and on ΔF508-CFTR [2] (setting [5]) was > 10000 nM throughout.

As for `Cc1nn(-c2ccccc2)c2nc(C(=O)O)cc(-c3ccc(N4CCN(CC#N)CC4)cc3)c12` [compound 98, 4-{4-[4-(cyanomethyl)piperazin-1-yl]phenyl}-3-methyl-1-phenyl-1H-pyrazolo[3,4-b]pyridine-6-carboxylic acid], the “% Activation” value on ΔF508-CFTR [1] was 350.65%; on ΔF508-CFTR [2] (setting [4]), 165.8%. The EC50 on ΔF508-CFTR [1] was determined as 834 nM; at ΔF508-CFTR [2] (setting [5]), 1150 nM.

For `CC(C)c1nn(-c2cccc(N(C)C)c2)c2nc(C(=O)O)cc(N3CCC(C(F)(F)F)C3)c12` (stereo not shown) [compound 270, 1-[3-(dimethylamino)phenyl]-3-(propan-2-yl)-4-[3-(trifluoromethyl)pyrrolidin-1-yl]-1H-pyrazolo[3,4-b]pyridine-6-carboxylic acid], the “% Activation” value amounted to 430.4% at ΔF508-CFTR [1] and 236.02% on ΔF508-CFTR [2] (setting [4]). Besides, the EC50 at ΔF508-CFTR [1] is 529 nM; at ΔF508-CFTR [2] (setting [5]) it was 698 nM.

On to `O=C(O)c1cc(OC[C@@H](F)C2CCOCC2)c2c(C3CCC3)nn(-c3ccccc3)c2n1` [compound 415, 3-cyclobutyl-4-[(2S)-2-fluoro-2-(oxan-4-yl)ethoxy]-1-phenyl-1H-pyrazolo[3,4-b]pyridine-6-carboxylic acid], for which, on ΔF508-CFTR [1], the “% Activation” value amounted to 334.35% and the EC50 was 249 nM. Besides, on ΔF508-CFTR [2] (setting [3]), the “% Activation” value is reported as 168.85% and the EC50 was found to be 487 nM.

Turning to `Cc1cccc(-n2nc(C(C)C)c3c(N4CCC(S(C)(=O)=O)CC4)cc(C(=O)O)nc32)c1` [compound 257, 4-[4-(methanesulfonyl)piperidin-1-yl]-1-(3-methylphenyl)-3-(propan-2-yl)-1H-pyrazolo[3,4-b]pyridine-6-carboxylic acid], the “% Activation” value on ΔF508-CFTR [1] was 440.2%; on ΔF508-CFTR [2] (setting [4]), 260.4%. The EC50 at ΔF508-CFTR [1] came to 788 nM; at ΔF508-CFTR [2] (setting [5]) it was 2530 nM.

On to `O=C(O)c1cc(N2CC(N3CCOC3=O)C2)c2c(C3CCC3)nn(-c3ccccc3)c2n1` [compound 529, 3-cyclobutyl-4-[3-(2-oxo-1,3-oxazolidin-3-yl)azetidin-1-yl]-1-phenyl-1H-pyrazolo[3,4-b]pyridine-6-carboxylic acid], for which, on ΔF508-CFTR [1], the “% Activation” value was 126.7% and the EC50 was > 10000 nM. At ΔF508-CFTR [2] (setting [3]), the “% Activation” value is 5.039% and the EC50 is > 10000 nM.

Turning to `CC(=O)N1CCC(Oc2cc(C(=O)O)nc3c2c(C2CCC2)nn3-c2ccccc2)CC1` [compound 612, 4-[(1-acetylpiperidin-4-yl)oxy]-3-cyclobutyl-1-phenyl-1H-pyrazolo[3,4-b]pyridine-6-carboxylic acid], the “% Activation” value on ΔF508-CFTR [1] amounted to 266.9%; at ΔF508-CFTR [2] (setting [3]), 109.5%. Besides, the EC50 was found to be 1180 nM on ΔF508-CFTR [1] and 3330 nM at ΔF508-CFTR [2] (setting [3]).

Regarding `O=C(O)c1cc(N2CCC(CN3CC4(CCCOC4)C3)CC2)c2c(C3CCC3)nn(-c3ccccc3)c2n1` [compound 836, 3-cyclobutyl-4-{4-[(6-oxa-2-azaspiro[3.5]nonan-2-yl)methyl]piperidin-1-yl}-1-phenyl-1H-pyrazolo[3,4-b]pyridine-6-carboxylic acid], at ΔF508-CFTR [1], the “% Activation” value was determined as 325.3% and the EC50 worked out at 409 nM. Also, at ΔF508-CFTR [2] (setting [3]), the “% Activation” value is 137.3% and the EC50 was 486 nM.

As for `O=C(O)c1cc(N2CCN(CCCO)CC2)c2c(C3CCC3)nn(-c3ccccc3)c2n1` [compound 471, 3-cyclobutyl-4-[4-(3-hydroxypropyl)piperazin-1-yl]-1-phenyl-1H-pyrazolo[3 ,4-b]pyridine-6-carboxylic acid], the “% Activation” value at ΔF508-CFTR [1] was 259.9%; at ΔF508-CFTR [2] (setting [3]), 106.45%. Besides, the figures for the EC50 at ΔF508-CFTR [1] and at ΔF508-CFTR [2] (setting [3]) were 2990 nM and 3340 nM, respectively.

`CC1(O)CN(c2cc(C(=O)O)nc3c2c(C2CCC2)nn3-c2ccccc2)C1` [compound 536, 3-cyclobutyl-4-(3-hydroxy-3-methylazetidin-1-yl)-1-phenyl-1H-pyrazolo[3,4-b]pyridine-6-carboxylic acid]: at ΔF508-CFTR [1], the “% Activation” value came out at 209.35% and the EC50 stood at 2470 nM. In addition, on ΔF508-CFTR [2] (setting [3]), the “% Activation” value worked out at 49.72% and the EC50 is 3330 nM.

For `O=C(O)c1cc(OCCN2CCNC2=O)c2c(C3CCC3)nn(-c3ccccc3)c2n1` [compound 640, 3-cyclobutyl-4-[2-(2-oxoimidazolidin-1-yl)ethoxy]-1-phenyl-1H-pyrazolo[3,4-b]pyridine-6-carboxylic acid], at ΔF508-CFTR [1], the “% Activation” value is 137.45% and the EC50 is > 10000 nM. For the same compound, at ΔF508-CFTR [2] (setting [3]), the “% Activation” value is 13.97% and the EC50 is > 10000 nM.

For `CC(C)N1CNC(=O)C12CCN(c1cc(C(=O)O)nc3c1c(C1CCC1)nn3-c1ccccc1)CC2` [compound 469, 3-cyclobutyl-4-[4-oxo-1-(propan-2-yl)-1,3,8-triazaspiro[4.5]decan-8-yl]-1-phenyl-1H-pyrazolo[3,4-b]pyridine-6-carboxylic acid], on ΔF508-CFTR [1], the “% Activation” value came out at 360.3% and the EC50 is 716 nM. Further, at ΔF508-CFTR [2] (setting [3]), the “% Activation” value was determined as 198.95% and the EC50 is 1120 nM.

In the case of `CC(C)c1nn([C@@H]2CCC[C@@H](O)C2)c2nc(C(=O)O)cc(-c3ccc(N4CCOCC4)cc3)c12` (racemic) [compound 194, rac-1-[(1R,3R)-3-hydroxycyclohexyl]-4-[4-(morpholin-4-yl)phenyl]-3-(propan-2-yl)-1H-pyrazolo[3,4-b]pyridine-6-carboxylic acid], the figures for the “% Activation” value on ΔF508-CFTR [1] and on ΔF508-CFTR [2] (setting [4]) were 233.9% and 86.36%, respectively. The EC50 on ΔF508-CFTR [1] came out at 1250 nM; at ΔF508-CFTR [2] (setting [5]) it was 1710 nM.
